Data: US20140287447A1, “Ultrasensitive methodology for quantifying the kinase catalytic activity of any protein kinase in biological/clinical samples or recombinant/purified proteins using near-infrared-fluorescence (NIRF)-labeled, kinase-selective peptide substrates and a combination of kinase-selective inhibitors to …” (priority 2013, published 2014)

Experiments:
[1] = system: MDA-MB-231 breast cancer cell lysates; assay: NIRF-based kinase reaction in breast cancer cell lysates with and without PKC-inhibitor cocktail; assay type: biochemical; settings: cGMP 10 μM, MDA-MB-231 cell lysates
Method: This allows simultaneous determination of PKG-I kinase activity in MDA-MB-231 breast cancer cell lysates (D).
Each reagent has been previously experimentally tested to be the optimum concentration used for a complete radioactive-free kinase reaction to measure PKG kinase activity. The reagents for homogenizing buffer include: 20 mM Potassium phosphate (pH 7.0), 10 mM EDTA, 0.5 mM isobutylmethylxanthine, and 10 mM DTT.
Table 5 is the disclosure protocol that is illustrated as a work flow in FIG. 7. Biological samples can be prepared in the homogenizing buffer (Table 4) using a variety of techniques. These techniques include, but are not limited to: sonication, dounce-homogenation, the use of a tissue grinder, and/or a detergent specialized for lysing cells. Once a biological sample is prepared in the specially formulated homogenizing buffer from Table 4 or purified/recombinant protein buffer recommended by the manufacturer (2) included in the disclosure, the sample can be added to a sterile microfuge tube containing the radioactive-free kinase reaction mixture containing NIRF-Histone-H2B(29-35) (Table 3 and FIG. 1) (4). The kinase reaction typically requires an incubation chamber capable of reaching a temperature of 30° C. to incubate the samples. The time and temperature of incubation is determined by the researcher, but short incubation times of 2 minutes can be used. […]

[2] = substrate: Nc1ncnc2c1ncn2[C@@H]1O[C@H](COP(=O)(O)OP(=O)(O)OP(=O)(O)O)[C@@H](O)[C@H]1O; assay: purified protein, by the assay type; settings: 30.0 °C

## Nc1nc2c(ncn2[C@@H]2O[C@@H]3COP(=O)(O)O[C@H]3[C@H]2O)c(=O)[nH]1 [cGMP, cyclic guanosine monophosphate]
[1]
  effect of exogenously-added cGMP on kinase activity in cell lysates: does not cause increased kinase activity

B1: recombinant PKG-Iα (rPKG-Iα) (Homo sapiens) (protein)
chain: MSELEEDFAKILMLKEERIKELEKRLSEKEEEIQELKRKLHKCQSVLPVPSTHIGPRTTRAQGISAEPQTYRSFHDLRQAFRKFTKSERSKDLIKEAILDNDFMKNLELSQIQEIVDCMYPVEYGKDSCIIKEGDVGSLVYVMEDGKVEVTKEGVKLCTMGPGKVFGELAILYNCTRTATVKTLVNVKLWAIDRQCFQTIMMRTGLIKHTEYMEFLKSVPTFQSLPEEILSKLADVLEETHYENGEYIIRQGARGDTFFIISKGTVNVTREDSPSEDPVFLRTLGKGDWFGEKALQGEDVRTANVIAAEAVTCLVIDRDSFKHLIGGLDDVSNKAYEDAEAKAKYEAEAAFFANLKLSDFNIIDTLGVGGFGRVELVQLKSEESKTFAMKILKKRHIVDTRQQEHIRSEKQIMQGAHSDFIVRLYRTFKDSKYLYMLMEACLGGELWTILRDRGSFEDSTTRFYTACVVEAFAYLHSKGIIYRDLKPENLILDHRGYAKLVDFGFAKKIGFGKKTWTFCGTPEYVAPEIILNKGHDISADYWSLGILMYELLTGSPPFSGPDPMKTYNIILRGIDMIEFPKKIAKNAANLIKKLCRDNPSERLGNLKNGVKDIQKHKWFEGFNWEGLRKGTLTPPIIPSVASPTDTSNFDSFPEDNDEPPPDDNSGWDIDF
[2]
  Km: 8.8 µM
